Among the test systems are MCF7 breast; M14 melanoma; SN12C renal; NCI-H522 lung; OVCAR-8 ovarian; HCT-116 colon; COLO 205 colon; EKVX NSCLC; OVCAR-3 ovarian; SR leukemia.
Assay in all cases: NCI anticancer screen, dose series, 48 h

Consider nine molecules from PubChem BioAssay (NCI).

Values joined by “and” are separate entries in the source; they are usually repeats but may differ in a detail not shown here. Identical values can stand only once.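 Cultured in 96-well plates, cells were exposed to test compound for 48 hours across five concentrations. Here, GI50 denotes the concentration required for 50% inhibition of growth. Definition used: TGI = concentration required for complete inhibition of growth.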 Bounds are passed on as bounds.

As to `CCOc1ccc(/C=C2\NC(=S)N(/C=C3\C(=O)Oc4ccccc4C3=O)C2=O)cc1`, the TGI in the assay on MCF7 breast came out at 63.1 µM; in the assay with M14 melanoma it was 92.4 µM; in the assay on SN12C renal, 45.3 µM; in the assay on NCI-H522 lung it was 51.2 µM; in the assay on OVCAR-8 ovarian it was 36.7 µM; with HCT-116 colon it was 39.9 µM. In addition, the TGI in the assay on COLO 205 colon is 43.4 µM; in the assay with EKVX NSCLC, 70 µM; with OVCAR-3 ovarian it was 44.6 µM.
As to `COc1ccc2c(c1)c(-c1ccc(-c3cn(C)c4ccc(OC)cc34)[nH]1)cn2C`, the GI50 in the assay with MCF7 breast was 5.18 µM; in the assay on M14 melanoma, 3.97 µM; in the assay with SN12C renal, 2.77 µM; in the assay on OVCAR-8 ovarian, 2.71 µM; in the assay with SR leukemia, 1310 nM; in the assay with HCT-116 colon, 3.04 µM. Further, the GI50 with COLO 205 colon was 1.92 µM; with EKVX NSCLC it was 1.73 µM. Besides, the TGI with MCF7 breast amounted to 24.4 µM; in the assay on M14 melanoma it was 20.3 µM; with SN12C renal it was 10.9 µM; in the assay with OVCAR-8 ovarian, 12.2 µM; in the assay on SR leukemia, 4.01 µM; in the assay on HCT-116 colon it was 12.7 µM. The TGI with COLO 205 colon is 4.74 µM; in the assay with EKVX NSCLC, 3.74 µM.
With `CN(C)CCCCn1ccc2c1C(=O)c1c(c(O)c3ccccc3c1O)C2=O`, the GI50 in the assay with MCF7 breast is 11.3 µM; in the assay on M14 melanoma it was 2.78 µM; with SN12C renal it was 14.1 µM; in the assay with NCI-H522 lung it was 33.8 µM; with OVCAR-8 ovarian it was 11.5 µM; in the assay with SR leukemia it was 4360 nM. The values for the GI50 in the assay with HCT-116 colon, with COLO 205 colon and with OVCAR-3 ovarian were 9.03 µM, 7.05 µM and 2.98 µM, respectively. The TGI in the assay with MCF7 breast is 28.4 µM; in the assay with M14 melanoma, 8.7 µM; in the assay with SN12C renal, 28.6 µM; with NCI-H522 lung it was greater than 100 µM; with OVCAR-8 ovarian, 25.6 µM; with SR leukemia, 23.6 µM. Moreover, the figures for the TGI with HCT-116 colon, in the assay with COLO 205 colon and in the assay on OVCAR-3 ovarian were 21.1 µM, 21 µM and 15.9 µM, respectively.
As for `CN1C[C@@H]2Cn3c(c(C4=C(c5cn(C)c6ccccc56)C(=O)NC4=O)c4ccccc43)C[C@H]2C1`, the GI50 is 3.6 µM and 3.15 µM in the assay with MCF7 breast; 4.07 µM and 3.96 µM in the assay with M14 melanoma; 3.45 µM and 3.3 µM in the assay on SN12C renal; 4.16 µM and 3.63 µM in the assay on NCI-H522 lung; 4.74 µM and 4.35 µM in the assay on OVCAR-8 ovarian; 4890 nM and 1770 nM with SR leukemia. Further, the GI50 was 4.2 µM and 3.02 µM in the assay with HCT-116 colon; 3.09 µM and 1.96 µM with COLO 205 colon; 4.42 µM and 4.64 µM in the assay with OVCAR-3 ovarian. Also, the TGI was 8.7 µM and 9.66 µM in the assay on MCF7 breast; 8.24 µM and 7.83 µM with M14 melanoma; 8.8 µM and 8.65 µM in the assay with SN12C renal; 8.15 µM and 7.81 µM with NCI-H522 lung; 11.4 µM and 11.1 µM in the assay with OVCAR-8 ovarian; 14.4 µM and 7.38 µM in the assay on SR leukemia. Also, the TGI with HCT-116 colon was 9.66 µM and 8.22 µM; in the assay with COLO 205 colon it was 6.7 µM and 5.72 µM; in the assay on OVCAR-3 ovarian it was 9.42 µM and 10.9 µM.
In the case of `Clc1ccc(CNc2nccc(-c3cnn4ncccc34)n2)cc1`, the GI50 in the assay with MCF7 breast is 5.91 µM; with M14 melanoma, 7.09 µM; in the assay with SN12C renal it was 7.54 µM; in the assay on NCI-H522 lung it was 5.85 µM; with OVCAR-8 ovarian, 6.63 µM; in the assay with HCT-116 colon, 7.92 µM. Moreover, the GI50 in the assay with COLO 205 colon was 4.86 µM; in the assay with EKVX NSCLC it was 5.54 µM; in the assay with OVCAR-3 ovarian it was 7.32 µM. In addition, the TGI is greater than 25 µM in the assay on MCF7 breast; greater than 17 µM with M14 melanoma; greater than 25 µM with SN12C renal; 19.3 µM in the assay on NCI-H522 lung; greater than 25 µM in the assay on OVCAR-8 ovarian; greater than 25 µM with HCT-116 colon. Besides, the TGI is 9.76 µM in the assay on COLO 205 colon, greater than 19.9 µM with EKVX NSCLC and 21.6 µM in the assay on OVCAR-3 ovarian.
Consider `COC(=O)[C@H](C)NC(=O)[C@@H](OC)[C@@H]1Cc2cc3cc(OC4CC(OC5CC(O)C(O)C(C)O5)C(O)C(C)O4)c(C)c(O)c3c(O)c2C(=O)[C@H]1OC1CC(OC2CC(OC3CC(C)(O)C(O)C(C)O3)C(O)C(C)O2)C(O)C(C)O1` (some centres undefined), for which the GI50 with MCF7 breast is 0.0236 µM; in the assay with M14 melanoma it was 0.113 µM; in the assay on SN12C renal, 0.101 µM; in the assay on OVCAR-8 ovarian, 0.0461 µM; in the assay with SR leukemia it was 27.1 nM; in the assay with HCT-116 colon it was 0.0245 µM. In addition, the GI50 with COLO 205 colon was 0.0934 µM; in the assay on EKVX NSCLC, 0.174 µM; in the assay with OVCAR-3 ovarian, 0.118 µM. Also, the TGI was greater than 50 µM in the assay with MCF7 breast; 1.41 µM in the assay on M14 melanoma; greater than 50 µM in the assay with SN12C renal; greater than 50 µM with OVCAR-8 ovarian; greater than 50 µM with SR leukemia; greater than 50 µM with HCT-116 colon. In addition, the TGI turned out to be 1.09 µM with COLO 205 colon, 35.5 µM with EKVX NSCLC and 7.41 µM with OVCAR-3 ovarian.
On to `Fc1ccc2c(c1)C1=C(CO2)C(c2ccc(Cl)cc2)NC(=S)N1` (centres undefined), for which the GI50 in the assay with MCF7 breast was 18.1 µM; with M14 melanoma, 24 µM; in the assay with SN12C renal, 17.7 µM; in the assay on OVCAR-8 ovarian, 42.6 µM; in the assay with SR leukemia, 13000 nM; with COLO 205 colon, 31.3 µM. The GI50 was 37.4 µM with EKVX NSCLC and 14.7 µM in the assay with OVCAR-3 ovarian. Moreover, the TGI was 42.2 µM with MCF7 breast; 57.5 µM in the assay with M14 melanoma; 40.2 µM with SN12C renal; greater than 100 µM in the assay with OVCAR-8 ovarian; 50.3 µM in the assay with SR leukemia; 90.9 µM in the assay on COLO 205 colon. Further, the TGI in the assay on EKVX NSCLC is greater than 100 µM; in the assay with OVCAR-3 ovarian, 49.5 µM.
In the case of `CCC1(NC(=O)c2cc(F)c(F)c(F)c2F)C(=O)NC(=O)N(C(C)C)C1=O` (centres undefined), the GI50 is greater than 100 µM in the assay on MCF7 breast; 10.3 µM in the assay on M14 melanoma; 26.4 µM in the assay with SN12C renal; 34.6 µM in the assay on OVCAR-8 ovarian; 2980 nM in the assay on SR leukemia; 22.5 µM with HCT-116 colon. In addition, the GI50 in the assay with COLO 205 colon is 27.5 µM; with EKVX NSCLC, 24.6 µM; with OVCAR-3 ovarian, 23.9 µM. The TGI is greater than 100 µM in the assay on MCF7 breast; 34.6 µM in the assay with M14 melanoma; greater than 100 µM in the assay on SN12C renal; greater than 100 µM with OVCAR-8 ovarian; 9.65 µM with SR leukemia; 51.5 µM with HCT-116 colon. For the same molecule, the results for the TGI in the assay with COLO 205 colon, with EKVX NSCLC and with OVCAR-3 ovarian were greater than 100 µM, 97 µM and 53.1 µM, respectively.
For `Cc1cnccc1N=Nc1ccc(N(C)C)cc1`, the TGI in the assay with MCF7 breast was 35 µM; in the assay on M14 melanoma, greater than 100 µM; with SN12C renal, 72.6 µM; in the assay on OVCAR-8 ovarian it was 60.1 µM; in the assay with HCT-116 colon, greater than 100 µM; in the assay on COLO 205 colon, 26.1 µM. For the same molecule, the TGI with EKVX NSCLC stood at 32.9 µM; with OVCAR-3 ovarian it was 72.1 µM.
